Results taken from the supplement of paper PMC11451515.

Test system: NOMO1
Assay: cell viability relative to DMSO control; higher = less cytotoxic
Conditions: 48 h
In short: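 Before seeding, each leukemia line was adapted for at least four passages in each medium. NOMO1 or SEM cells (500 cells/well) and P12-Ichikawa cells (1000 cells/well) went into 1536-well plates at 5 μl, then received library compounds in DMSO by pin dosing across 11 threefold concentrations, 47 μM to 0.79 nM. Readout was CellTiter-Glo One luminescence after 48 h at 37°C, and viability is given as a per-plate percentage of DMSO wells, with cell-free wells as background.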

[1] = HPLM + 10% dialyzed FBS, 0.000781 µM
[2] = HPLM + 10% dialyzed FBS, 0.00234 µM
[3] = HPLM + 10% dialyzed FBS, 0.00702 µM
[4] = HPLM + 10% dialyzed FBS, 0.0211 µM
[5] = HPLM + 10% dialyzed FBS, 0.0632 µM
[6] = HPLM + 10% dialyzed FBS, 0.19 µM
[7] = HPLM + 10% dialyzed FBS, 0.569 µM
[8] = HPLM + 10% dialyzed FBS, 1.71 µM
[9] = HPLM + 10% dialyzed FBS, 5.12 µM
[10] = HPLM + 10% dialyzed FBS, 15.4 µM
[11] = HPLM + 10% dialyzed FBS, 46.1 µM
[12] = RPMI 5 mM glucose + 10% FBS, 0.000781 µM
[13] = RPMI 5 mM glucose + 10% FBS, 0.00234 µM
[14] = RPMI 5 mM glucose + 10% FBS, 0.00702 µM
[15] = RPMI 5 mM glucose + 10% FBS, 0.0211 µM
[16] = RPMI 5 mM glucose + 10% FBS, 0.0632 µM
[17] = RPMI 5 mM glucose + 10% FBS, 0.19 µM
[18] = RPMI 5 mM glucose + 10% FBS, 0.569 µM
[19] = RPMI 5 mM glucose + 10% FBS, 1.71 µM
[20] = RPMI 5 mM glucose + 10% FBS, 5.12 µM
[21] = RPMI 5 mM glucose + 10% FBS, 15.4 µM
[22] = RPMI 5 mM glucose + 10% FBS, 46.1 µM
[23] = RPMI 5 mM glucose + 10% dialyzed FBS, 0.000781 µM
[24] = RPMI 5 mM glucose + 10% dialyzed FBS, 0.00234 µM
[25] = RPMI 5 mM glucose + 10% dialyzed FBS, 0.00702 µM
[26] = RPMI 5 mM glucose + 10% dialyzed FBS, 0.0211 µM
[27] = RPMI 5 mM glucose + 10% dialyzed FBS, 0.0632 µM
[28] = RPMI 5 mM glucose + 10% dialyzed FBS, 0.19 µM
[29] = RPMI 5 mM glucose + 10% dialyzed FBS, 0.569 µM
[30] = RPMI 5 mM glucose + 10% dialyzed FBS, 1.71 µM
[31] = RPMI 5 mM glucose + 10% dialyzed FBS, 5.12 µM
[32] = RPMI 5 mM glucose + 10% dialyzed FBS, 15.4 µM
[33] = RPMI 5 mM glucose + 10% dialyzed FBS, 46.1 µM

SMILES	cell viability [1] [%]	cell viability [2] [%]	cell viability [3] [%]	cell viability [4] [%]	cell viability [5] [%]	cell viability [6] [%]	cell viability [7] [%]	cell viability [8] [%]	cell viability [9] [%]	cell viability [10] [%]	cell viability [11] [%]	cell viability [12] [%]	cell viability [13] [%]	cell viability [14] [%]	cell viability [15] [%]	cell viability [16] [%]	cell viability [17] [%]	cell viability [18] [%]	cell viability [19] [%]	cell viability [20] [%]	cell viability [21] [%]	cell viability [22] [%]	cell viability [23] [%]	cell viability [24] [%]	cell viability [25] [%]	cell viability [26] [%]	cell viability [27] [%]	cell viability [28] [%]	cell viability [29] [%]	cell viability [30] [%]	cell viability [31] [%]	cell viability [32] [%]	cell viability [33] [%]
CC1(C)[C@@H](O)CC[C@@]2(C)[C@H]1CC[C@]3(C)[C@@H]2C(=O)\C=C/4[C@@H]5C[C@](C)(CC[C@]5(C)CC[C@@]34C)C(O)=O	102	113	120	127	116	113	118	118	116	124	112	110	99.1	110	116	95.7	103	102	95	98.1	93.9	86.8	104	108	117	115	115	103	116	117	92	97.7	97.9
COc1ccc(/C=C/C(=O)Nc2ccccc2C(=O)O)cc1OC	119	105	120	149	112	117	119	78.8	120	73.7	86.9	108	111	108	109	114	110	105	95	112	92.3	87.5	104	114	118	94.8	104	128	105	110	104	104	83.8
COCCCC/C(=N\OCCN)c1ccc(C(F)(F)F)cc1	85.7	80.4	79.2	85.2	94.8	91.8	78.6	64.2	81.3	48.9	3.91	84.2	82	80.9	84.5	80.7	79.5	82	83	72.5	72.7	25.5	72.7	80.1	83.5	88.8	90.1	73.1	75.9	80	77.1	77.1	28.7
Cc1ccc(C(=O)Nc2ccc([S+](=O)([O-])O)c3cc([S+](=O)([O-])O)cc([S+](=O)([O-])O)c23)cc1NC(=O)c1cccc(NC(=O)Nc2cccc(C(=O)Nc3cc(C(=O)Nc4ccc([S+](=O)([O-])O)c5cc([S+](=O)([O-])O)cc([S+](=O)([O-])O)c45)ccc3C)c2)c1	95.4	93.6	96.9	90.1	91.5	71.9	69.3	73.6	40.8	37.1	38.4	89.4	83.9	107	89.7	90.4	85.9	84.7	90.4	75.6	69	62.2	91.9	91	93.1	101	76.9	85.8	87.6	88.9	76.9	56.3	52.5
CC(C)[C@H](O)C(=O)N[C@@H](C)C(=O)N[C@@H]1C(=O)N(C)CCc2ccccc21	93.5	132	111	113	113	125	109	101	101	92.6	76.7	98.7	119	117	114	117	98.5	125	105	108	110	92.5	112	109	123	112	110	114	108	108	112	103	97.2
CNC(=O)c1nn(C)c2c1C(C)(C)Cc1cnc(Nc3ccc(N4CCN(C)CC4)cc3)nc1-2	125	108	104	104	99.7	113	103	65.8	55.6	47.8	8.74	111	114	103	107	115	111	100	86.6	78.8	48.3	13.2	113	102	107	106	118	108	103	75.6	66	46.8	8.73
CC[C@H]1OC(=O)[C@H](C)[C@@H](O[C@H]2C[C@@](C)(OC)[C@@H](O)[C@H](C)O2)[C@H](C)[C@@H](O[C@@H]2O[C@H](C)C[C@H](N(C)C)[C@H]2O)[C@](C)(O)C[C@@H](C)/C(=N\OCOCCOC)[C@H](C)[C@@H](O)[C@]1(C)O	101	95.6	86	89.4	92.9	89.6	78.6	75.3	80.1	68.5	85.5	85.2	92	95	84.6	89.5	90.7	87.3	88.9	90.9	91.1	82	85.9	79.3	83.3	74.1	76.6	69.5	72.1	82.1	80.1	79.8	79.8
NC(=O)c1nnn(Cc2cc(Cl)c(C(=O)c3ccc(Cl)cc3)c(Cl)c2)c1N	111	134	124	127	120	137	124	135	111	120	78.7	121	123	129	124	122	123	123	105	110	114	103	–	–	–	–	–	–	–	–	–	–	–
CCC[C@H](Nc1nc(-c2ccc(NC(=O)NCC)c(OC)c2)ncc1C)c1cccnc1	119	109	115	126	47.8	41.7	44.2	48.7	45.8	48.4	39.7	114	112	129	115	50	31.5	33.8	26.4	27.8	30.9	25.7	105	120	122	125	34.6	35.3	39.2	31.2	23.9	31.1	28.7
OC1=C(Cl)C=C(N\C2=C(\C(=O)NC2=O)C3=C(C=CC=C3)[N+]([O-])=O)C=C1	100	98.3	103	106	120	106	83.8	70	68.9	56.8	60.7	94.3	106	116	102	99.5	95.9	94.5	95.4	86.5	69.6	10.1	90.2	98.7	102	112	119	116	96.4	94.2	78.6	73.9	12.1
CC1=CC/2=C(C=C1C)N(C[C@@H](O)[C@@H](O)[C@@H](O)CO)C/3=N/C(=O)NC(=O)C3=N2	130	119	119	115	124	135	139	125	89.1	127	46.2	108	108	116	118	116	117	110	120	108	111	98.5	113	126	113	123	126	123	128	123	108	107	90.1
COc1ccc(-n2c(C)c([N+](=O)[O-])c3ccc(O)cc32)cc1	–	–	–	–	–	–	–	–	–	–	–	111	104	113	114	118	126	107	121	98.3	119	106	114	120	126	124	123	115	114	102	97.5	105	101
Clc1ccc(C(c2ccccc2Cl)C(Cl)Cl)cc1 (stereo not drawn)	137	124	123	122	120	107	116	122	114	99.8	101	105	115	126	118	137	134	120	119	110	98.2	93.2	106	115	129	106	111	109	97.1	120	101	95	99.4
Cc1cc(/C=c2/sc3nc4ccccc4n3c2=O)c(C)n1-c1ccccc1	117	113	128	117	132	120	130	119	128	113	123	111	128	115	127	125	126	105	111	119	109	104	121	127	115	137	126	127	121	127	126	133	121
CCN1\C=C(C(O)=O)/C(=O)C2=C1C(=C(N3CCNC(C)C3)C(=C2)F)F (stereo not drawn)	101	103	114	115	118	121	121	129	128	120	114	114	117	102	115	121	107	122	116	123	116	111	103	112	104	106	118	112	111	122	113	139	98.3
